Assay results taken from PMC11019550, “Potent Inhibition of E. coli DXP Synthase by a gem-Diaryl Bisubstrate Analog” (ACS Infectious Diseases, 2024).

Biological target: T1, EcDXPS (Escherichia coli, UniProt P77488)
T1 construct: made in house
Assay: DXPS-IspC coupled assay, apparent Ki on wildtype EcDXPS
Type: biochemical
Conditions: for Ki: read-out: Ki^app; for fold change in Ki^app relative to 1: relative to compound 1
Protocol: To determine inhibitor potency, we used the DXPS-DXP reductoisomerae (DXPS-IspC) coupled assay to measure the activity of recombinant purified EcDXPS[24],[25],[31],[44],[50] in the presence of inhibitors. Reactions were initiated by the addition of substrates following a short preincubation of the inhibitor with enzymes, and initial velocities were determined by monitoring reduced nicotinamide adenine dinucleotide phosphate (NADPH) absorbance at 340 nm. Apparent Ki values were determined by fitting initial velocity data to the Morrison equation,[64],[65] which accounts for the tight-binding nature (Ki^app/[E]total < 10)[66] of inhibitors included in this study and allows for rigorous comparison of inhibitor potencies. […] Inhibitor activities were rationalized based on the predictions made from molecular docking of the corresponding PLThDP adducts into the DXPS active site.
All compounds in this study were evaluated as DXPS inhibitors using the DXPS-IspC coupled assay as previously reported.[24] […] The DXPS reaction was initiated by the addition of substrates (50 μM pyruvate and 500 μM D-GAP). The initial rate of depletion of NADPH was monitored at 340 nm and was used to calculate the initial rate of DXP formation in the presence or absence of inhibitor. Initial rates of DXP formation were plotted as a function of [inhibitor], and Ki^app was determined by fitting the data to the Morrison equation (eq 1)[64],[65] in GraphPad Prism. This approach was deemed appropriate as the concentration of free inhibitor cannot be assumed to remain constant for most of these analogs in which Ki^app values approach the concentration of DXPS.[88],[89] Error is reported as standard deviation from three replicates. Active enzyme concentration ([E]T) was determined following Copeland’s method using 8 (Figure S2B).[88]
The coupled assay was initiated by adding 20 μL of a 10× substrate stock to the preincubated E + I mixture to give a final volume of 200 μL. The final concentration of D-GAP was held constant at 500 μM, and [pyruvate] was added to final concentrations between 0 and 250 μM. The initial rate of NADPH depletion in the IspC-coupled reaction was monitored at 340 nm and was used to calculate the initial rate of DXP formation in the presence or absence of inhibitor. Initial rates were plotted as a function of [pyruvate]. […] Model discrimination analysis employing the Akaike information criterion was performed as well as Lineweaver–Burk analysis to determine the mixed model as the best fit. In all cases, error bars represent the standard deviation from three replicates.

T1 sequence (P77488 whole entry): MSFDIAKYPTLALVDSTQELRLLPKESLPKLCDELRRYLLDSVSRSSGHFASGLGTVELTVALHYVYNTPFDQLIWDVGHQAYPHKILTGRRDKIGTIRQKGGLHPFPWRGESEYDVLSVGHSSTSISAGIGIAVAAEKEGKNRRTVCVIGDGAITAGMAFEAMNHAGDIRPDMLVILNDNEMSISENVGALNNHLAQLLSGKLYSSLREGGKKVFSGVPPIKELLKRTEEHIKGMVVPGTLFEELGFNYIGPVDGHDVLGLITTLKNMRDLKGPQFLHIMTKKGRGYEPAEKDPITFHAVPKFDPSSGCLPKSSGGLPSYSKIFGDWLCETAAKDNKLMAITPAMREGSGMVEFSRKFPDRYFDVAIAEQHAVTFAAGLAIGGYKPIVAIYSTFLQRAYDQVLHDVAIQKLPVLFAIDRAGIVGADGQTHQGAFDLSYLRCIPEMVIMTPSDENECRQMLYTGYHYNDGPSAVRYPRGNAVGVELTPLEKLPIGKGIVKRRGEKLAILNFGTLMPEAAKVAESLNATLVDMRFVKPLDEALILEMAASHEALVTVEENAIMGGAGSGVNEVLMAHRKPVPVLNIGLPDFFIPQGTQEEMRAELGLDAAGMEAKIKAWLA

SMILES	Ki	fold change in Ki^app relative to 1	further results
CC(=O)P(=O)(O)OCCc1cn(C2(C(=O)O)CCCC2)nn1 [Compound 13]	530 ± 110 nM		
CC(=O)P(=O)(O)OCCc1cn([C@H](CC2CCCCC2)C(=O)O)nn1 [Compound 14]	260 ± 60 nM		
CC(=O)P(=O)(O)OCCc1cn([C@@H](C(=O)O)C2CCCCC2)nn1 [Compound 15]	1600 ± 200 nM	6 fold	
CC(=O)P(=O)(O)OCCc1cn([C@@H](C(=O)O)C23CC4CC(CC(C4)C2)C3)nn1 [Compound 16]	360 ± 10 nM		
CC(=O)P(=O)(O)OCCc1cn([C@H](C(=O)O)C23CC4CC(CC(C4)C2)C3)nn1 [Compound 17]	390 ± 60 nM		
CC(=O)P(=O)(O)OCCc1cn([C@@H](CO)Cc2ccccc2)nn1 [Compound 18]	13300 ± 1400 nM		
CC(=O)P(=O)(O)OCCc1cn([C@H](CO)Cc2ccccc2)nn1 [Compound 19]	13400 ± 1500 nM		
CC(=O)P(=O)(O)OCCc1cn(C(c2ccccc2)c2ccccc2)nn1.CCN(CC)CC [Compound 20]	5420 ± 40 nM	~21 fold	
CC(=O)P(=O)(O)OCCc1cn([C@H](Cc2ccccc2)C(c2ccccc2)c2ccccc2)nn1 [Compound 21]			inhibition of EcDXPS (up to a concentration of 50 μM): Minimal inhibition
CC(=O)P(=O)(O)OCCc1cn([C@@H](Cc2ccccc2)C(c2ccccc2)c2ccccc2)nn1 [Compound 22]	96000 ± 10000 nM	370 fold	α (mixed inhibition model) (mixed inhibition model): > 1; inhibition mode (model discrimination by Akaike's information criterion, varied pyruvate): mixed inhibition mode
